Measured values from publication PMC5116268 (Journal of pharmacological and toxicological methods, 2016).

Tested on: GABAA receptor (native mixed population in iCell Neurons)
Assay: automated patch clamp
Format: cell-based, Homo sapiens

**Q.** How did the EC50 turn out when `COc1ccc(-n2nc3c4ccc(OC)cc4[nH]cc-3c2=O)cc1` [CW-04-020] was run?
**A.** Its EC50 is 230 ± 70 nM.

**Q.** For `C#Cc1ccc2c(c1)C(c1ccccn1)=NCc1c(C(=O)OCC)ncn1-2` [HZ166], which EC50 is on record?
**A.** The EC50 was 1560 ± 830 nM.

**Q.** `CN1C(=O)CN=C(c2ccccc2)c2cc(Cl)ccc21` [diazepam] was tested. Which EC50 did it give?
**A.** Its EC50 is 420 ± 120 nM.
